Peptide text beside a SMILES is read from it. * marks the point of attachment. Oleoyl = CCCCCCCC/C=C\CCCCCCCC(=O)*
How the values were obtained:
[1] = Repression of the radical chain autoxidation reaction of methyl linoleate (HPLC of methyl linoleate hydroperoxide); details: hexane/isopropyl alcohol (1:1 v/v), 100 mM methyl linoleate, 10 mM 2,2'-azo-bis(2,4-dimethyl valeronitrile), 37° C.; FIG. 8-10
Protocol: The N-oleoyl-carnosine, N-caprinoyl-carnosine and N-oleoyl-carnosine methyl ester obtained respectively in Examples 1, 3 and 4 were tested for antioxidizing power in terms of repression of the radical chain autoxidation reaction of methyl linoleate. Hexane/isopropyl alcohol (1:1 v/v) containing 100 mM of methyl linoleate, 10 mM of an oil-soluble generating agent (2,2'-azo-bis(2,4-dimethyl valeronitrile)), and various concentration of N-oleoyl-carnosine, N-caprinoyl-carnosine or N-oleoyl-carnosine methyl ester was kept incubated at 37° C., sampled at intervals along the course of time, and analyzed by high-performance liquid chromatography to follow changes in the amount of methyl linoleate hydroperoxide to be formed.

[2] = Repression of the radical chain autoxidizing reaction of a multilayer liposome (ferrous sulfate/ascorbic acid, TBA reaction); details: 10 μM compound in liposome, 0.1 mM ferrous sulfate, 1 mM ascorbic acid, pH 7.4, 37° C.; FIG. 11
Protocol: The N-oleoyl-carnosine and the N-oleoyl-histidine obtained respectively in Example 1 and Example 2 were tested for antioxidizing power in terms of the repression of the radical chain autoxidizing reaction of a multilayer liposome. A multilayer liposome was formed of 4 mM of egg yolk phosphatidylcholine, 0.4 mM of egg yolk phosphatidylcholine hydroperoxide,and 10 μM of N-oleoylcarnosine or N-oleoyl-histidine by the use of 10 mM trishydrochloric acid buffer solution (pH 7.4). The multilayer liposome and 0.1 mM of ferrous sulfate and 1 mM of ascorbic acid added thereto were incubated at 37° C., sampled at intervals along the course of time, subjected to the TBA reaction to induce coloration of malondialdehyde resulting from the hydrolysis of lipid peroxide, and analyzed by high-performance liquid chromatography to follow changes in the amount of the hydrolyzate.

[3] = Emulsifying power in soybean oil/phosphate buffer, turbidity of lower layer O.D. (500 nm); format: physicochemical; details: 0.2% in 50 mM phosphate buffer (pH 7), 30° C.; for Relative emulsifying activity (%): one half volume soybean oil, ultrasonic wave, relative to N-oleoyl-carnosine taken as 100; for emulsifying power (in words): oil-water system, soybean oil
Protocol: The N-oleoyl-carnosine and the N-oleoyl-histidine obtained respectively in Example 1 and Example 2 were tested for emulsifying power. The emulsifying power was determined by dissolving each N-acyl compound in a concentration of 0.2% in 50 mM of phosphate buffer solution (pH 7), combining the resultant solution with one half in volume of soybean oil, subjecting the resultant mixture to a treatment with ultrasonic wave at 30° C., allowing the treated mixture to stand at rest at 30° C. for a prescribed time, and measuring the turbidity of the lower layer consequently separated in the mixture in terms of O.D. (500 nm). […] The magnitudes of emulsifying power given in Table 1 represent relative numerical values of emulsifying power based on the emulsifying power of N-oleoyl-carnosine taken as 100.

Row | Compound | antioxidizing power (formation of methyl linoleate hydroperoxide) [1] | antioxidizing power (malondialdehyde from lipid peroxide) [2] | Relative emulsifying activity (%) [3] [%] | emulsifying power (in words) [3]
1 | CCCCCCCCCC(=O)N[C@@H](Cc1c[nH]cn1)C(=O)O [N-caprinoyl histidine] | have antioxidizing powers | – | – | –
2 | CCCCCCCCCC(=O)NCCC(=O)NC(Cc1cnc[nH]1)C(=O)O (centres unmarked) [N-caprinoyl-carnosine, N-Caprinoyl carnosine] | possessed of antioxidizing power | – | – | –
3 | CCCCCCCC/C=C\CCCCCCCC(=O)NCC(=O)NCC(=O)N[C@@H](Cc1c[nH]cn1)C(=O)O [N-oleoyl glycylglycylhistidine] (Oleoyl-Gly-Gly-His-OH) | have antioxidizing powers | – | – | –
4 | CCCCCCCC/C=C\CCCCCCCC(=O)N[C@@H](Cc1c[nH]cn1)C(=O)N[C@@H](CC(C)C)C(=O)O [N-oleoyl histidylleucine] (Oleoyl-His-Leu-OH) | have antioxidizing powers | – | – | –
5 | CCCCCCCC/C=C\CCCCCCCC(=O)N[C@@H](Cc1cnc[nH]1)C(=O)O [N-oleoyl-His] | have antioxidizing powers | possessed of antioxidizing power | 82.1 | possessed of outstanding emulsifying power
6 | CCCCCCCC/C=C\CCCCCCCC(=O)NCCC(=O)N[C@@H](Cc1cnc[nH]1)C(=O)OC [N-oleoyl-carnosine methyl ester, N-Oleoyl carnosine methyl ester] | possessed of antioxidizing power | – | – | –
7 | CCCCCCCC/C=C\CCCCCCCC(=O)NCCC(=O)N[C@@H](Cc1cnc[nH]1)C(=O)O [N-oleoyl-carnosine] | possessed of antioxidizing power | possessed of antioxidizing power | 100 | possessed of outstanding emulsifying power
8 | Casein | – | – | 24.3 | –

From US5503776A, “N-acylcarnosines and their use as antioxidants” (National Food Research Institute Ministry of Agriculture, …, priority 1991, dated 1996)
